In patent US20150352108A1, “AMINO-PYRIMIDINE COMPOUNDS AS INHIBITORS OF TBK1 AND/OR IKK EPSILON” (Alzheimer's Institute of America, priority 2009, published 2015):

How the values were obtained:
IKKε = molecular target: T1, IKKε (Homo sapiens, UniProt Q14164); experiment: In-vitro IKKε kinase assay ([γ33]ATP filter-plate); format: biochemical; settings: text bins; read-out: IC50 for inhibition of the kinase activity of IKKε
T1 construct: His-tag; made in house; host or cells: Sf9 insect cells
T1 sequence (Q14164 1-716): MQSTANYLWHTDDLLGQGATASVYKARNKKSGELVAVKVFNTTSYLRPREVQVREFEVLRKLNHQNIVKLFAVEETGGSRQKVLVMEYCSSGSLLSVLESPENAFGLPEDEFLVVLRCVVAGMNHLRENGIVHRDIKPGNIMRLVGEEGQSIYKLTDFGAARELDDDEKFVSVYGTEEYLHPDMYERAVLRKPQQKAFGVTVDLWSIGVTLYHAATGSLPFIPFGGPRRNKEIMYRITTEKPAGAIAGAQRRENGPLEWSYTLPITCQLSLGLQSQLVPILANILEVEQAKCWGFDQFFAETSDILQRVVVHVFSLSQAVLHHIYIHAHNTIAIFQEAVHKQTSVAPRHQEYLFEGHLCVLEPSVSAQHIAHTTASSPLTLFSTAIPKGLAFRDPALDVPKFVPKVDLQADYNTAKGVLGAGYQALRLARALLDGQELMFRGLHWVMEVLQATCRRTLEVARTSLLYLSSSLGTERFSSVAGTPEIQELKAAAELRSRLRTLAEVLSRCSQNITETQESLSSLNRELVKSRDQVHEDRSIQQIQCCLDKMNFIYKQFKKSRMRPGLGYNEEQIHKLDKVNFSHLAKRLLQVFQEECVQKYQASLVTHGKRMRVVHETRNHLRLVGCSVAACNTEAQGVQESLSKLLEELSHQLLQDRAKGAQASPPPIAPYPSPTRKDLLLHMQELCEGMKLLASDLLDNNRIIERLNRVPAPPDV
Method in brief: (§1)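 His-tagged IKKε and TBK1 from Sf9 cells were assayed with myelin basic protein or casein and [γ33]ATP at 2×Km ATP (32 μM for IKKε, 60 μM for TBK1). Enzyme was 0.1 or 0.015 μg/ml for IKKε and 0.1 or 0.02 μg/ml for TBK1 (normal/sensitized). Reactions ran 30-45 min, were filter-captured, scintillation-counted, and normalized to DMSO after background subtraction.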

TBK1 = molecular target: T2, TBK1 (Homo sapiens, UniProt Q9UHD2); experiment: In-vitro TBK1 kinase assay ([γ33]ATP filter-plate); format: biochemical; settings: text bins; read-out: IC50 for inhibition of the kinase activity of TBK1
T2 construct: His-tag; made in house; host or cells: Sf9 insect cells
T2 sequence (Q9UHD2 1-729): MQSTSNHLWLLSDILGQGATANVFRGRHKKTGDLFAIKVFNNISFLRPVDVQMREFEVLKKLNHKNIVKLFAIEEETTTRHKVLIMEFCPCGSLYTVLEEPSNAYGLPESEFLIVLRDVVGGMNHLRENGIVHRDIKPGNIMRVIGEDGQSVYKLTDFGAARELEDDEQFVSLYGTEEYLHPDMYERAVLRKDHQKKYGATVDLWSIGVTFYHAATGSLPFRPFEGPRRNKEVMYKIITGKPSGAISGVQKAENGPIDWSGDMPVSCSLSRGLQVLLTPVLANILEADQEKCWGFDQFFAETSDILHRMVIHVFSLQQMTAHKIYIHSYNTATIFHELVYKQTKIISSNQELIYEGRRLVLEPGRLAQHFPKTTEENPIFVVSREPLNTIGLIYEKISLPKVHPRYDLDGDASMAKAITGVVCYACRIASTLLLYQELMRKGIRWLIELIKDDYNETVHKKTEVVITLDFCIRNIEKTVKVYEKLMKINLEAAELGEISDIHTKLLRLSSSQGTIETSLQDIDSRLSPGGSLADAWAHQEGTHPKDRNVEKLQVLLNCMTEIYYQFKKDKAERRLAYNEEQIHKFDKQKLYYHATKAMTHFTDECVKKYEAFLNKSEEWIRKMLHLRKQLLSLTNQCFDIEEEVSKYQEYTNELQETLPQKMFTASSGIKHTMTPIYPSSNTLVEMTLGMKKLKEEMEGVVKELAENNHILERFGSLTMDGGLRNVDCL
Method in brief: as §1

N#Cc1cc(-c2ccnc(Nc3ccc(N4CCOCC4)cc3)n2)ccc1NC(=O)C1CCC1 [compound 416, N-[2-cyano-4-(2-{[4-(morpholin-4-yl)phenyl]amino}pyrimidin-4-yl)phenyl] cyclobutane-carboxamide]
IC50 (IKKε): 5 to 50 nM
IC50 (TBK1): 10 to 100 nM

CS(=O)(=O)N1CCC(Oc2ccc(-c3ccnc(Nc4ccc(N5CCOCC5)cc4)n3)cc2C#N)C1 (centres unmarked) [Example 257, 2-{[1-(methylsulfonyl)pyrreolidin-3-yl]oxy}-5-(2-{[4-(morpholin-4-yl)phenyl]amino}pyrimidin-4-yl)benzonitrile]
IC50 (IKKε): 5 to 50 nM
IC50 (TBK1): 10 to 100 nM

COc1ccc(-c2ccnc(Nc3ccc(S(=O)(=O)NCCCN(C)C)c(OC)c3)n2)cc1C#N [compound 375, 4-{[4-(3-Cyano-4-methoxyphenyl)pyrimidin-2-yl]amino}-N-[3-(dimethylamino)propyl]-2-methoxybenzene-sulfonamide]
IC50 (IKKε): 5 to 50 nM
IC50 (TBK1): 10 to 100 nM

N#Cc1cccc(-c2ccnc(Nc3ccc4[nH]ncc4c3)n2)c1 [compound 387, 3-[2-(1H-Indazol-5-ylamino)pyrimidin-4-yl]benzonitrile]
IC50 (IKKε): 5 to 50 nM
IC50 (TBK1): 100 to 500 nM

COc1ccc(-c2ccnc(Nc3ccc(N4CCN(C(C)C)C(=O)C4)c(OC)c3)n2)cc1C#N [Example 38, 2-Methoxy-5-[2-({3-methoxy-4-[3-oxo-4-(propan-2-yl)piperazin-1-yl]phenyl}amino)pyrimidin-4-yl]benzonitrile]
IC50 (IKKε): 5 to 50 nM
IC50 (TBK1): < 10 nM

CC(C)CC(=O)Nc1ccc(-c2ccnc(Nc3ccc(N4CCOCC4)cc3)n2)cc1C#N [Example 1, N-[2-cyano-4-(2-{[4-(morpholin-4-yl)phenyl]amino}pyrimidin-4-yl)phenyl]-3-methylbutanamide]
IC50 (IKKε): 5 to 50 nM
IC50 (TBK1): < 10 nM

COc1ccc(-c2ccnc(Nc3cc(OC)c(OC)c(OC)c3)n2)cc1C#N [compound 341, 2-methoxy-5-{2-[(3,4,5-trimethoxyphenyl)amino]pyrimidin-4-yl}benzonitrile]
IC50 (IKKε): < 5 nM
IC50 (TBK1): < 10 nM

COc1cc(Nc2nccc(-c3ccc(OC4CCOCC4)c(C#N)c3)n2)ccc1OCCOCCNS(=O)(=O)N(C)C [Example 26, N′-(2-{2-[4-({4-[3-cyano-4-(tetrahydro-2H-pyran-4-yloxy)phenyl]pyrimidin-2-yl}amino)-2-methoxyphenoxy]ethoxy}ethyl)-N,N-dimethylsulfuric diamide]
IC50 (IKKε): < 5 nM
IC50 (TBK1): < 10 nM

C[C@H](O)C(=O)N1CCC(Oc2ccc(-c3ccnc(Nc4ccc(C(=O)NCCCN(C)C)cc4)n3)cc2C#N)CC1 [Example 4, 4-({4-[3-cyano-4-({1-[(2S)-2-hydroxypropanoyl]piperidin-4-yl}oxy)phenyl]pyrimidin-2-yl}amino)-N-[3-(dimethylamino)propyl]benzamide]
IC50 (IKKε): < 5 nM
IC50 (TBK1): < 10 nM

COCCNCc1ccc(Nc2nccc(-c3ccc(OCC4CC4)c(C#N)c3)n2)cc1 [compound 581, 2-(Cyclopropylmethoxy)-5-{2-[(4-{[(2-methoxyethyl)amino]methyl}phenyl)amino]pyrimidin-4-yl}benzonitrile]
IC50 (IKKε): < 5 nM
IC50 (TBK1): < 10 nM

COc1ccc(-c2ccnc(Nc3ccc(N4CCS(=O)(=O)CC4)cc3)n2)cc1C#N [compound 313]
IC50 (IKKε): 5 to 50 nM
IC50 (TBK1): 10 to 100 nM

N#Cc1cc(-c2ccnc(Nc3ccc(N4CCOCC4)cc3)n2)ccc1OC1CCN(C(=O)CCO)CC1 [Example 215, 2-{[1-(3-Hydroxypropanoyl)piperidin-4-yl]oxy}-5-(2-{[4-(morpholin-4-yl)phenyl]amino}pyrimidin-4-yl)benzonitrile]
IC50 (IKKε): 5 to 50 nM
IC50 (TBK1): < 10 nM

Cc1nnsc1C(=O)Nc1ccc(-c2ccnc(Nc3ccc(N4CCOCC4)cc3)n2)cc1C#N [Example 129, N-[2-cyano-4-(2-{[4-(morpholin-4-yl)phenyl]amino}pyrimidin-4-yl)phenyl]-4-methyl-1,2,3-thiadiazol-5-carboxamide]
IC50 (IKKε): < 5 nM
IC50 (TBK1): < 10 nM

COC1CN(c2cc(Nc3nccc(-c4ccc(OC5CCOCC5)c(C#N)c4)n3)ccc2C)C1 [compound 572, 5-(2-{[3-(3-Methoxyazetidin-1-yl)-4-methylphenyl]amino}pyrimidin-4-yl)-2-(tetrahydro-2H-pyran-4-yloxy)benzonitrile]
IC50 (IKKε): < 5 nM
IC50 (TBK1): < 10 nM

N#Cc1cc(-c2ccnc(Nc3ccc(N4CCOCC4)cc3)n2)ccc1O[C@@H]1CCNC1 [compound 470, 5-(2-{[4-(morpholin-4-yl)phenyl]amino}pyrimidin-4-yl)-2-[(3R)-pyrrolidin-3-yloxy]benzonitrile]
IC50 (IKKε): 5 to 50 nM
IC50 (TBK1): < 10 nM

CC(C)C(=O)Nc1ccc(-c2ccnc(Nc3cccc(CC(=O)N4CCOCC4)c3)n2)cc1C#N [compound 421, N-{2-cyano-4-[2-({3-[2-(morpholin-4-yl)-2-oxoethyl]phenyl}amino)pyrimidin-4-yl]phenyl}-2-methylpropanamide]
IC50 (IKKε): 5 to 50 nM
IC50 (TBK1): 10 to 100 nM

COc1cc(Nc2nccc(-c3ccc(OC)c(C#N)c3)n2)cc(C(=O)O)c1 [compound 305]
IC50 (IKKε): 5 to 50 nM
IC50 (TBK1): 10 to 100 nM

N#Cc1cccc(-c2ccnc(Nc3cccc(S(N)(=O)=O)c3)n2)c1 [compound 373]
IC50 (IKKε): < 5 nM
IC50 (TBK1): 10 to 100 nM

N#Cc1cc(-c2ccnc(Nc3ccc(F)c(OCCN4CCNCC4)c3)n2)ccc1OCC1CC1 [compound 654, 2-(Cyclopropylmethoxy)-5-[2-({4-fluoro-3-[2-(piperazin-1-yl)ethoxy]phenyl}amino)pyrimidin-4-yl]benzonitrile]
IC50 (IKKε): < 5 nM
IC50 (TBK1): < 10 nM

COc1ccc(-c2ccnc(Nc3cccc(NC(=O)N4CC[C@@H](O)C4)c3)n2)cc1C#N [compound 372, (3R)-N-(3-{[4-(3-Cyano-4-methoxyphenyl)pyrimidin-2-yl]amino}phenyl)-3-hydroxypyrrolidine-1-carboxamide]
IC50 (IKKε): 5 to 50 nM
IC50 (TBK1): 10 to 100 nM

N#Cc1cc(-c2ccnc(Nc3ccc(NC(=O)NCCO)cc3)n2)ccc1OC1CCOCC1 [Example 11, 1-[4-({4-[3-cyano-4-(tetrahydro-2H-pyran-4-yloxy)phenyl]pyrimidin-2-yl}amino)phenyl]-3-(2-hydroxyethyl)urea]
IC50 (IKKε): < 5 nM
IC50 (TBK1): < 10 nM

COc1cc(C#N)cc(-c2ccnc(Nc3cccc(NC(C)=O)c3)n2)c1 [Example 214, N-(3-{[4-(3-Cyano-5-methoxyphenyl)pyrimidin-2-yl]amino}phenyl) acetamide]
IC50 (IKKε): 5 to 50 nM
IC50 (TBK1): 10 to 100 nM

CC(C)C(=O)Nc1ccc(-c2ccnc(Nc3cccc(CC(=O)NCCCN4CCOCC4)c3)n2)cc1C#N [compound 422, N-[2-cyano-4-(2-{[3-(2-{[3-(morpholin-4-yl)propyl]amino}-2-oxoethyl)phenyl]amino}pyrimidin-4-yl)phenyl]-2-methylpropanamide]
IC50 (IKKε): 5 to 50 nM
IC50 (TBK1): 10 to 100 nM

COc1ccc(-c2ccnc(Nc3cc(CN(C)CC(=O)N(C)C)c(OC)c(OC)c3)n2)cc1C#N [Example 115, N~2~-(5-{[4-(3-Cyano-4-methoxyphenyl)pyrimidin-2-yl]amino}-2,3-dimethoxybenzyl)-N,N,N~2~- trimethylglycinamide]
IC50 (IKKε): < 5 nM
IC50 (TBK1): 10 to 100 nM

CC(C)C(=O)Nc1ccc(-c2ccnc(Nc3ccc(CN4CCOCC4)cc3)n2)cc1C#N [compound 428, N-[2-cyano-4-(2-{[4-(morpholin-4-ylmethyl)phenyl]amino}pyrimidin-4-yl)phenyl]-2-methylpropanamide]
IC50 (IKKε): 5 to 50 nM
IC50 (TBK1): 10 to 100 nM
